Experiments:
[1] = target: EGFR L858R/C797S Ba/F3 cells (Homo sapiens, UniProt P00533, C797S/L858R, cells depend on it); experiment: Ba/F3 cell proliferation (Cell Titer Glo), EGFR L858R/C797S; assay type: cell-based, murine; settings: 72 hours exposure, read-out: L858R/C797S (μM), inhibitory activity against EGFR mutants
Excerpt: (§1) The EGFR mutant L858R Ba/F3 cells have been previously described (Zhou, W., et al. Nature 462, 2009, 1070-1074). The EGFR C797S and C775S mutations were introduced via site directed mutagenesis using the Quick Change Site-Directed Mutagenesis kit into a vector containing EGFR L858R mutation (Stratagene; La Jolla, CA) according to the manufacturer's instructions. All constructs were confirmed by DNA sequencing. The constructs were then shuttled into the retroviral vector JP1540 by either using the Cre-recombination system (Agilent Technologies, Santa Clara, CA) or the In-fusion HD Cloning kit (Takara Bio USA, Inc.; Mountain view, CA). Ba/F3 cells were then infected with retrovirus per standard protocols, as described previously (Zhou, et al, Nature 2009). Stable clones were obtained by selection in puromycin (2 ug/ml). All BaF/3 mutant cells were maintained in RPMI 1640 (Cellgro; Mediatech Inc., Herndon, CA) supplemented with 10% FBS, 100 units/mL penicillin, 100 units/mL streptomycin.
(§2) Growth and inhibition of growth was assessed by the Cell Titer Glo assay (Promega, Madison, WI) and was performed according to the manufacturer's instructions. The Cell Titer Glo assay is a luminescence-based method used to determine the number of viable cells based on quantitation of the ATP present, which is directly proportional to the amount of metabolically active cells present. Ba/F3 cells of different EGFR genotypes were exposed to compounds for 72 hours and the number of cells used per experiment was determined empirically as has been previously established (Zhou, et al., Nature 2009). All experimental points were set up in triplicates in 384-well plates. […] The curves were fitted using a non-linear regression model with a sigmoidal dose response.
(§3) For inhibitory activity against EGFR mutants, the following designations are used: ≤0·25 μM=A, 0·25 μM˜0.5 μM=B, 0.5 μM˜2.5 μM=C, ≥2.5 μM=D.

[2] = target: EGFR mutant L858R Ba/F3 cells (Homo sapiens, UniProt P00533, L858R, cells depend on it); experiment: Ba/F3 cell proliferation (Cell Titer Glo), EGFR L858R; assay type: cell-based, murine; settings: 72 hours exposure, read-out: L858R BaF3 (μM), inhibitory activity against EGFR mutants
EGFR mutant L858R Ba/F3 cells, sequence (P00533 whole entry L858R): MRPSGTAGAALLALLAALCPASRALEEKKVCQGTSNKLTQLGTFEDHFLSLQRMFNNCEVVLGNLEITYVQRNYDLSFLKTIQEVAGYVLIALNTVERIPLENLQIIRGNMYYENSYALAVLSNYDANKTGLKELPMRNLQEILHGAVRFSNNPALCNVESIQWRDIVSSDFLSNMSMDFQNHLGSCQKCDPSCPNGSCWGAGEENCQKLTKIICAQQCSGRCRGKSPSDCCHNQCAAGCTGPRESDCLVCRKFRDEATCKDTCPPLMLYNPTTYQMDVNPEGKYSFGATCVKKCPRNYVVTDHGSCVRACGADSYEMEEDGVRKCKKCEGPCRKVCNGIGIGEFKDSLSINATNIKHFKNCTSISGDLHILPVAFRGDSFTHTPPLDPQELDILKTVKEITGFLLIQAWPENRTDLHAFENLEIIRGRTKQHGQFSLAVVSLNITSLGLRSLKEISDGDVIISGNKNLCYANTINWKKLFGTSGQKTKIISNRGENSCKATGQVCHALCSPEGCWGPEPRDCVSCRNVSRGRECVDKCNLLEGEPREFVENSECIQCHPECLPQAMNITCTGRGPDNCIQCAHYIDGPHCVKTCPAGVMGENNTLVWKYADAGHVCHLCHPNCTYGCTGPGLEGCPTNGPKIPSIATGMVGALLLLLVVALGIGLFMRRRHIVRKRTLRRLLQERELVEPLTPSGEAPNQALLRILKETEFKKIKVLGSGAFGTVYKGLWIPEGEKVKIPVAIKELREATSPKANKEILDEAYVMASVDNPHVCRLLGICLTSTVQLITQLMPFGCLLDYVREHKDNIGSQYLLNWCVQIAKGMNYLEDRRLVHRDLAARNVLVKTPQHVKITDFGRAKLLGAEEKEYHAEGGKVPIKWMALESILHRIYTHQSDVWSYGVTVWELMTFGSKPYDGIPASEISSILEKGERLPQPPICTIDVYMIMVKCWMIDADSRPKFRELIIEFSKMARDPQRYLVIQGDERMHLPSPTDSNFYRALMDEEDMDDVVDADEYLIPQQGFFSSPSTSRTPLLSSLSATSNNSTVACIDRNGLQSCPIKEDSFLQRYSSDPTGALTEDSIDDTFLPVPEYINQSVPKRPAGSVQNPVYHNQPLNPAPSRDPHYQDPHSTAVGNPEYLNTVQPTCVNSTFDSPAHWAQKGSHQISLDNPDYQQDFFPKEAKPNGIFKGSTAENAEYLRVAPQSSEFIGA
Excerpt: as §1, §2, §3

EGFR L858R/C797S Ba/F3 cells, sequence (P00533 whole entry C797S/L858R, the tested form may be a part): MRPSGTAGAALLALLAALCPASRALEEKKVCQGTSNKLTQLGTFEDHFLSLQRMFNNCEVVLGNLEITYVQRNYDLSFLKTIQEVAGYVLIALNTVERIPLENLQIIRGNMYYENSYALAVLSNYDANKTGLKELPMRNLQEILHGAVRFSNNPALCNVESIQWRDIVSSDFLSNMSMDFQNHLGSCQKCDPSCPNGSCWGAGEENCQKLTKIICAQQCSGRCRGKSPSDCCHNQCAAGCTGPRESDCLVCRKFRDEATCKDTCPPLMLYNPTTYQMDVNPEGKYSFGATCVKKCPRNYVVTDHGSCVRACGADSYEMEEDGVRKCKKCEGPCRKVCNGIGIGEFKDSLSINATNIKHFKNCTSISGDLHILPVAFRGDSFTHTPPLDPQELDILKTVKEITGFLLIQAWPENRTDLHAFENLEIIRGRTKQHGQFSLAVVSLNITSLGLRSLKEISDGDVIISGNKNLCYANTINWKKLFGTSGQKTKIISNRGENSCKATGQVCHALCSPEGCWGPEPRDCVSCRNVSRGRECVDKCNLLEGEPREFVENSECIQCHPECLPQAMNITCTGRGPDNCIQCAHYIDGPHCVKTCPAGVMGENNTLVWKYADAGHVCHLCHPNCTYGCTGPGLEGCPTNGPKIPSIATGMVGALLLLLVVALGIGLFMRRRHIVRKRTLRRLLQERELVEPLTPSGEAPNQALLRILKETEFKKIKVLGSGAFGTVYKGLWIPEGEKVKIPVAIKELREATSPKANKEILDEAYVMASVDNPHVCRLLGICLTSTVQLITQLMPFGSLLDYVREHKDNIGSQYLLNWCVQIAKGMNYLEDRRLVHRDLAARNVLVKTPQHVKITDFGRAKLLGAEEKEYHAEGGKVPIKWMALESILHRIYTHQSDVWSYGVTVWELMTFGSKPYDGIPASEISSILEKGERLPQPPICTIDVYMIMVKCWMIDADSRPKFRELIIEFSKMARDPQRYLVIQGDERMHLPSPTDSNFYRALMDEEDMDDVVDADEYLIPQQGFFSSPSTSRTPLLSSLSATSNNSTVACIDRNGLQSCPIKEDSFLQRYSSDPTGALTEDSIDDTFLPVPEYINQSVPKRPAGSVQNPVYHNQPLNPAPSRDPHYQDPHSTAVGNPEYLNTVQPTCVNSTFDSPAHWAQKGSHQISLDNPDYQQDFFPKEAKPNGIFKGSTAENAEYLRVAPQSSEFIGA

| Compound | GI50 [1] | GI50 [2] |
| --- | --- | --- |
| C=CC(=O)N1CCN(c2cc3cnc(Nc4ccc(N5CCN(C)CC5)cc4OC)nc3n(C)c2=O)c2cccc(C)c21 [Compound 029] | ≤ 0.25 µM | ≤ 0.25 µM |
| C=CC(=O)N1CCN(c2cc3cnc(Nc4ccc(OCCN(C)C)cc4)nc3n(C3CC(O)C3)c2=O)c2cccc(OC)c21 (centres unmarked) [Compound 077] | ≤ 0.25 µM | ≤ 0.25 µM |
| C=CC(=O)N1CCN(c2cc3cnc(Nc4ccc(N5CCN(C)CC5)cc4)nc3n(-c3cccnc3)c2=O)c2cccc(C)c21 [Compound 052, 2-[4-(4-methylpiperazin-1-yl)anilino]-6-(5-methyl-4-prop-2-enoyl-2,3-dihydroquinoxalin-1-yl)-8-(3-pyridyl)pyrido[2,3-d]pyrimidin-7-one] | ≤ 0.25 µM | ≤ 0.25 µM |
| C=CC(=O)N1CCN(c2cc3cnc(Nc4ccc(OCCN(C)C)cc4)nc3n([C@H]3C[C@H](O)C3)c2=O)c2cccc(C)c21 [Compound 044] | ≤ 0.25 µM | ≤ 0.25 µM |
| C=CC(=O)N1CCN(c2cc3cnc(Nc4cnn(CCN(C)C)c4)nc3n(C)c2=O)c2cccc(C)c21 [Compound 037, 2-[[1-[2-(dimethylamino)ethyl]pyrazol-4-yl]amino]-8-methyl-6-(5-methyl-4-prop-2-enoyl-2,3-dihydroquinoxalin-1-yl)pyrido[2,3-d]pyrimidin-7-one] | ≤ 0.25 µM | ≤ 0.25 µM |
| C=CC(=O)N1CCN(c2cc3cnc(NC4CCC4)nc3n(-c3ccc(N(C)CCN(C)C)cc3)c2=O)c2cccc(C)c21 [Compound 102, 2-(cyclobutylamino)-8-[4-[2-(dimethylamino)ethyl-methyl-amino]phenyl]-6-(5-methyl-4-prop-2-enoyl-2,3-dihydroquinoxalin-1-yl)pyrido[2,3-d]pyrimidin-7-one] | ≤ 0.25 µM | ≤ 0.25 µM |
| C=CC(=O)N1CCN(c2cc3cnc(N)nc3n(-c3ccc(OCCN(C)C)cc3)c2=O)c2cccc(C)c21 [Compound 080, 2-amino-8-[4-[2-(dimethylamino)ethoxy]phenyl]-6-(5-methyl-4-prop-2-enoyl-2,3-dihydroquinoxalin-1-yl)pyrido[2,3-d]pyrimidin-7-one] | ≤ 0.25 µM | ≤ 0.25 µM |
| C=CC(=O)N1CCN(c2cc3cnc(Nc4cc5n(c4)CCN(C)C5=O)nc3n(C)c2=O)c2cccc(C)c21 [Compound 073, 8-methyl-2-[(2-methyl-1-oxo-3,4-dihydropyrrolo[1,2-a]pyrazin-7-yl)amino]-6-(5-methyl-4-prop-2-enoyl-2,3-dihydroquinoxalin-1-yl)pyrido[2,3-d]pyrimidin-7-one] | ≤ 0.25 µM | ≤ 0.25 µM |
| C=CC(=O)N1CCN(c2cc3cnc(Nc4ccc(N5CCN(C)CC5)cc4)nc3n(C)c2=O)c2cccc(C)c21 [Compound 019, 8-methyl-2-[4-(4-methylpiperazin-1-yl)anilino]-6-(5-methyl-4-prop-2-enoyl-2,3-dihydroquinoxalin-1-yl)pyrido[2,3-d]pyrimidin-7-one] | ≤ 0.25 µM | ≤ 0.25 µM |
| C=CC(=O)N1CCN(c2cc3cnc(Nc4ccnc(OC)c4)nc3n(C)c2=O)c2cccc(C)c21 [Compound 062] | ≤ 0.25 µM | ≤ 0.25 µM |
| C=CC(=O)N1CCN(c2cc3cnc(Nc4ccccc4)nc3n([C@H]3C[C@@H](O)C3)c2=O)c2cccc(C)c21 [Compound 069] | ≤ 0.25 µM | ≤ 0.25 µM |
| C=CC(=O)N1CCN(c2cc3cnc(NC4CC4)nc3n(-c3ccc(N(C)CCN(C)C)cc3)c2=O)c2cccc(C)c21 [Compound 095, 2-(cyclopropylamino)-8-[4-[2-(dimethylamino)ethyl-methyl-amino]phenyl]-6-(5-methyl-4-prop-2-enoyl-2,3-dihydroquinoxalin-1-yl)pyrido[2,3-d]pyrimidin-7-one] | ≤ 0.25 µM | ≤ 0.25 µM |
| C=CC(=O)N1CCN(c2cc3cnc(N)nc3n(-c3ccc(OCCN(C)C)nc3)c2=O)c2cccc(C)c21 [Compound 079] | 0.5 to 2.5 µM | ≤ 0.25 µM |
| C=CC(=O)N1CCN(c2cc3cnc(Nc4ccc5c(c4)CN(S(C)(=O)=O)CC5)nc3n(C)c2=O)c2cccc(C)c21 [Compound 035] | ≤ 0.25 µM | ≤ 0.25 µM |
| C=CC(=O)N1CCN(c2cc3cnc(N)nc3n(-c3ccc(N4CCN(C)CC4)cc3)c2=O)c2cccc(C)c21 [Compound 092, 2-amino-8-[4-(4-methylpiperazin-1-yl)phenyl]-6-(5-methyl-4-prop-2-enoyl-2,3-dihydroquinoxalin-1-yl)pyrido[2,3-d]pyrimidin-7-one] | ≤ 0.25 µM | ≤ 0.25 µM |
| C=CC(=O)N1CCN(c2cc3cnc(N)nc3n([C@H]3CC[C@@](C)(O)CC3)c2=O)c2cccc(C)c21 [Compound 088, 6-(4-acryloyl-5-methyl-3,4-dihydroquinoxalin-1 (2H)-yl)-2-amino-8-((1s,4s)-4-hydroxy-4-methylcyclohexyl)pyrido[2,3-d]pyrimidin-7 (8H)-one] | ≤ 0.25 µM | ≤ 0.25 µM |
| C=CC(=O)N1CCN(c2cc3cnc(Nc4ccc(OCCN(C)C)cc4)nc3n(C)c2=O)c2cc(O)ccc21 [Compound 078, 2-[4-[2-(dimethylamino)ethoxy]anilino]-6-(7-hydroxy-4-prop-2-enoyl-2,3-dihydroquinoxalin-1-yl)-8-methyl-pyrido[2,3-d]pyrimidin-7-one] | ≤ 0.25 µM | ≤ 0.25 µM |
| C=CC(=O)N1CCN(c2cc3cnc(Nc4ccc(OCCN(C)C)cc4)nc3n(C3CC(F)(F)C3)c2=O)c2cccc(C)c21 [Compound 055, 8-(3,3-difluorocyclobutyl)-2-[4-[2-(dimethylamino)ethoxy]anilino]-6-(5-methyl-4-prop-2-enoyl-2,3-dihydroquinoxalin-1-yl)pyrido[2,3-d]pyrimidin-7-one] | ≤ 0.25 µM | ≤ 0.25 µM |
| C=CC(=O)N1CCN(c2cc3cnc(Nc4ccc(OCCN(C)C)cc4)nc3n([C@H]3C[C@@H](O)C3)c2=O)c2cccc(C)c21 [Compound 043] | ≤ 0.25 µM | ≤ 0.25 µM |
| C=C(F)C(=O)N1CCC(c2cc3cnc(Nc4cnn(CCO)c4)nc3n(C)c2=O)c2ccccc21 (centres unmarked) [Compound 014, 6-[1-(2-fluoroprop-2-enoyl)-3,4-dihydro-2H-quinolin-4-yl]-2-[[1-(2-hydroxyethyl)pyrazol-4-yl]amino]-8-methyl-pyrido[2,3-d]pyrimidin-7-one] | ≤ 0.25 µM | ≤ 0.25 µM |
| C=CC(=O)N1CCN(c2cc3cnc(Nc4ccc(N5CCN(C)CC5)cc4)nc3n(C)c2=O)c2cccc(OC)c21 [Compound 021] | ≤ 0.25 µM | ≤ 0.25 µM |
| C=CC(=O)N1CCN(c2cc3cnc(Nc4ccc(N5CCN(C)CC5)cc4)nc3n(C)c2=O)c2cccc(O)c21 [Compound 051, 6-(5-hydroxy-4-prop-2-enoyl-2,3-dihydroquinoxalin-1-yl)-8-methyl-2-[4-(4-methylpiperazin-1-yl)anilino]pyrido[2,3-d]pyrimidin-7-one] | ≤ 0.25 µM | ≤ 0.25 µM |
| C=CC(=O)N1CCN(c2cc3cnc(Nc4ccc(OCCN(C)C)cc4OC)nc3n(C)c2=O)c2cccc(C)c21 [Compound 068] | ≤ 0.25 µM | ≤ 0.25 µM |
| C=CC(=O)N1CCN(c2cc3cnc(N)nc3n(-c3cccc(OC)c3)c2=O)c2cccc(C)c21 [Compound 090] | 0.25 to 0.5 µM | ≤ 0.25 µM |
| C=CC(=O)N1CCN(c2cc3cnc(N)nc3n([C@H]3CC[C@H](OC)CC3)c2=O)c2cccc(C)c21 [Compound 086, 2-amino-8-(4-methoxycyclohexyl)-6-(5-methyl-4-prop-2-enoyl-2,3-dihydroquinoxalin-1-yl)pyrido[2,3-d]pyrimidin-7-one] | ≤ 0.25 µM | ≤ 0.25 µM |
| C=CC(=O)N1CCN(c2cc3cnc(N)nc3n(-c3ccc(N(C)CCN(C)C)cc3)c2=O)c2cccc(C)c21 [Compound 101, 2-amino-8-[4-[2-(dimethylamino)ethyl-methyl-amino]phenyl]-6-(5-methyl-4-prop-2-enoyl-2,3-dihydroquinoxalin-1-yl)pyrido[2,3-d]pyrimidin-7-one] | 0.5 to 2.5 µM | 0.25 to 0.5 µM |
| C=CC(=O)N1CCN(c2cc3cnc(Nc4ccc(CN5CCN(C)CC5)cc4)nc3n(C)c2=O)c2cccc(C)c21 [Compound 050] | ≤ 0.25 µM | ≤ 0.25 µM |
| C=CC(=O)N1CCN(c2cc3cnc(NC)nc3n(-c3ccc(OCCN(C)C)cc3)c2=O)c2cccc(C)c21 [Compound 081, 8-[4-[2-(dimethylamino)ethoxy]phenyl]-2-(methylamino)-6-(5-methyl-4-prop-2-enoyl-2,3-dihydroquinoxalin-1-yl)pyrido[2,3-d]pyrimidin-7-one] | ≤ 0.25 µM | ≤ 0.25 µM |
